From patent publication US10246442B2, “4-Aminoquinazolin compounds as prolyl hydroxylase inhibitors” (JANSSEN PHARMACEUTICA NV, priority 2011, dated 2019)

Tests used:
HIF1-α, Hela cells = assay: Cellular assay for HIF1-α in Hela cells; format: cell-based; conditions: Homo sapiens, 100 μM compound, 6 hours, percent of HIF stimulation relative to assay control compound 7-[(4-Chloro-phenyl)-(5-methyl-isoxazol-3-ylamino)-methyl]-quinolin-8-ol
Experimental: Cellular Assay for HIF1-α
Hela cells (ATCC, Manassas, Va.) were plated in 96-well plates at 20,000 cells per well in 100 μl of DMEM containing 10% fetal bovine serum, 1% non-essential amino acids, 50 IU/mL of penicillin and 50 μg/mL of streptomycin (all cell culture reagents from Invitrogen, Carlsbad, Calif.). 24 hours after plating, changed media to 100 ul of DMEM without 10% fetal bovine serum, 1.1 μl of the stock solution for each compound was added and incubated for 6 hours. All compounds were tested with a final compound concentration of 100 μM. The supernatant was removed and the cells were lysed in 55 μl of MSD lysis buffer containing protease inhibitors. 50 μl of the cell lysate was then transferred to a blocked MSD human HIF-1α detection plate (Meso-Scale Discovery, Gaithersburg, Md., as per manufacturers protocol), and incubated at room temperature on an orbital shaker for 2 hour. After 3 washes in PBS, 25 μl of 20 nM anti-HIF1α a detection antibody was added and incubated for 1 hour at room temperature on an orbital shaker. After 3 washes in PBS, 150 μl of 1× read buffer was added and the plate was then read on a MSD SECTOR instrument. Data was analyzed by determining the percent of HIF stimulation in the presence of 100 μM compound relative to an assay control compound, 7-[(4-Chloro-phenyl)-(5-methyl-isoxazol-3-ylamino)-methyl]-quinolin-8-ol.

PHD2181-417 = PHD2181-417 (Homo sapiens (Human), UniProt Q9GZT9); assay: PHD enzymatic assay ([14C]-succinic acid production); format: biochemical; conditions: purified PHD2181-417, HIF-1α peptide substrate, 30 min pre-incubation; average of results
PHD2181-417, sequence (Q9GZT9 181-417): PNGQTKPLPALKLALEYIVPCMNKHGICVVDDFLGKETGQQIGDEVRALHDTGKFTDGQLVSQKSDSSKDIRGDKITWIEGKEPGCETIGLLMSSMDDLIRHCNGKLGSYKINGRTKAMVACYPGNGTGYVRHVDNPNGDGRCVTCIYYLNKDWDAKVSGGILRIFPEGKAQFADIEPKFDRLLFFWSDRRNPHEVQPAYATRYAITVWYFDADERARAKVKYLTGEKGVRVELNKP
Procedure, shortened: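 Recombinant human PHD2 (aa 181-417, E. coli-expressed, tags cleaved) with peptide substrate (10 μM) and [5-14C]-2-oxoglutarate in Tris pH 7.5 with catalase, DTT and ascorbate, 10 min reaction after 30 min compound pre-incubation; compounds at 100 μM final, 1% DMSO. [14C]-succinate separated by DNP precipitation and beta-counted; IC50 from three-parameter logistic fit.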

[1] = system: Erythropoietin secretion, Hep-3B cells; assay: Cellular assay: EPO secretion in Hep-3B cells; format: cell-based; conditions: Homo sapiens, Hep3B, 100 μM compound, 24 hours, percent of EPO secretion relative to assay control compound 7-[(4-Chloro-phenyl)-(5-methyl-isoxazol-3-ylamino)-methyl]-quinolin-8-ol, read-out: Cellular % EPO Stimulation
Procedure, shortened: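 Compounds at 100 μM final were added to Hep-3B cells 24 h after plating and left for 24 h. Secreted EPO in supernatant measured by MSD electrochemiluminescence immunoassay. Reported as percent EPO secretion relative to an 8-hydroxyquinoline reference control compound.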

SMILES	Enzyme pIC50 (PHD2181-417)	activation at 100 µM (HIF1-α, Hela cells) [%]	activation at 100 µM [1] [%]
Cc1cccc(C)c1Oc1cc2c(N3CCCN(C)CC3)nc(-n3cc(C(=O)O)cn3)nc2cc1F [Example 17, 1-(6-(2,6-Dimethylphenoxy)-7-fluoro-4-(4-methyl-1,4-diazepan-1-yl)quinazolin-2-yl)-1H-pyrazole-4-carboxylic acid]	6.7	47	
CC(=O)NC1CCN(c2nc(-n3cc(C(=O)O)cn3)nc3cc(F)c(Oc4c(C)cccc4C)cc23)CC1 [Example 21, 1-(4-(4-Acetamidopiperidin-1-yl)-6-(2,6-dimethylphenoxy)-7-fluoroquinazolin-2-yl)-1H-pyrazole-4-carboxylic acid]	6.9	62	
O=C(O)c1cnn(-c2nc(Nc3ccccc3Cl)c3cc(C4CCCCC4)ccc3n2)c1 [Example 29, 1-(4-((2-Chlorophenyl)amino)-6-cyclohexylquinazolin-2-yl)-1H-pyrazole-4-carboxylic acid]	7.1	7.8	
O=C(O)c1cnn(-c2nc(N3CCCCCC3)c3ccc(Oc4ccccc4)cc3n2)c1 [Example 87, 1-(4-(Azepan-1-yl)-7-phenoxyquinazolin-2-yl)-1H-pyrazole-4-carboxylic acid]		20	
CCCN(CCC)c1nc(-n2cc(C(=O)O)cn2)nc2cc(Oc3ccccc3)ccc12 [Example 93, 1-(4-(Dipropylamino)-7-phenoxyquinazolin-2-yl)-1H-pyrazole-4-carboxylic acid]		43	
CC(C)c1cc2c(N3CCOCC3)nc(-n3cc(C(=O)O)cn3)nc2cc1Cl [Example 160, 1-(7-chloro-6-isopropyl-4-morpholinoquinazolin-2-yl)-1H-pyrazole-4-carboxylic acid]	6.8		28
CC(C)c1cc2c(N(C)C)nc(-n3cc(C(=O)O)cn3)nc2cc1Cl [Example 161, 1-(7-chloro-4-(dimethylamino)-6-isopropylquinazolin-2-yl)-1H-pyrazole-4-carboxylic acid]	7.4		32
CCN(CC)c1nc(-n2cc(C(=O)O)cn2)nc2cc(Cl)c(C(C)C)cc12 [Example 162, 1-(7-chloro-4-diethylamino-6-isopropylquinazolin-2-yl)-1H-pyrazole-4-carboxylic acid]	7.2		40
O=C(O)c1cnn(-c2nc(N3CCOCC3)c3cc(OC4CCCCC4)ccc3n2)c1 [Example 172, 1-(6-(cyclohexyloxy)-4-morpholinoquinazolin-2-yl)-1H-pyrazole-4-carboxylic acid]	6.4		18
CN(C)c1nc(-n2cc(C(=O)O)cn2)nc2ccc(OC3CCCCC3)cc12 [Example 173, 1-(6-(cyclohexyloxy)-4-(dimethylamino)quinazolin-2-yl)-1H-pyrazole-4-carboxylic acid]	7.4		62
O=C(O)c1cnn(-c2nc(NC3CC3)c3cc(OC4CCCCC4)ccc3n2)c1 [Example 176, 1-(6-(cyclohexyloxy)-4-(cyclopropylamino)quinazolin-2-yl)-1H-pyrazole-4-carboxylic acid]	6.8		35
CC(C)c1ccc2nc(-n3cc(C(=O)O)cn3)nc(N(C)C)c2c1 [Example 185, 1-(4-(dimethylamino)-6-isopropylquinazolin-2-yl)-1H-pyrazole-4-carboxylic acid]	7.0		62
CCN(CC)c1nc(-n2cc(C(=O)O)cn2)nc2ccc(C(C)C)cc12 [Example 186, 1-(4-(diethylamino)-6-isopropylquinazolin-2-yl)-1H-pyrazole-4-carboxylic acid]	7.0		43
CCN(C)c1nc(-n2cc(C(=O)O)cn2)nc2ccc(C(C)C)cc12 [Example 189, 1-(6-isopropyl-4-(ethyl(methyl)amino)quinazolin-2-yl)-1H-pyrazole-4-carboxylic acid]	6.8		36

The next lines start with results.

Enzyme pIC50 (PHD2181-417)	SMILES	activation at 100 µM (HIF1-α, Hela cells) [%]	activation at 100 µM [1] [%]
7.0	Cc1cccc(C)c1Oc1cc2c(N3CCSCC3)nc(-n3cc(C(=O)O)cn3)nc2cc1F [Example 18, 1-(6-(2,6-Dimethylphenoxy)-7-fluoro-4-thiomorpholinoquinazolin-2-yl)-1H-pyrazole-4-carboxylic acid]	15	
6.9	Cc1cccc(C)c1Oc1cc2c(N3CCC(O)CC3)nc(-n3cc(C(=O)O)cn3)nc2cc1F [Example 19, 1-(6-(2,6-Dimethylphenoxy)-7-fluoro-4-(4-hydroxypiperidin-1-yl)quinazolin-2-yl)-1H-pyrazole-4-carboxylic acid]	140	
6.9	N#CC1CCN(c2nc(-n3cc(C(=O)O)cn3)nc3ccc(C4CCCCC4)cc23)CC1 [Example 30, 1-(4-(4-Cyanopiperidin-1-yl)-6-cyclohexylquinazolin-2-yl)-1H-pyrazole-4-carboxylic acid]	77	
7.2	CCN(C)c1nc(-n2cc(C(=O)O)cn2)nc2cc(Cl)c(OC3CCCCC3)cc12 [Example 140, 1-(7-chloro-6-(cyclohexyloxy)-4-(ethyl(methyl)amino)quinazolin-2-yl)-1H-pyrazole-4-carboxylic acid]		29
7.3	CC(C)c1cc2c(N3CCCC3)nc(-n3cc(C(=O)O)cn3)nc2cc1Cl [Example 163, 1-(7-chloro-4-(pyrrolidin-1-yl)-6-isopropylquinazolin-2-yl)-1H-pyrazole-4-carboxylic acid]		26
7.4	CCN(C)c1nc(-n2cc(C(=O)O)cn2)nc2cc(Cl)c(C(C)C)cc12 [Example 164, 1-(7-chloro-4-(ethyl(methyl)amino)-6-isopropylquinazolin-2-yl)-1H-pyrazole-4-carboxylic acid]		57
7.0	CC(C)c1cc2c(NC3CC3)nc(-n3cc(C(=O)O)cn3)nc2cc1Cl [Example 165, 1-(7-chloro-4-(cyclopropylamino)-6-isopropylquinazolin-2-yl)-1H-pyrazole-4-carboxylic acid]		24
7.3	CCN(C)c1nc(-n2cc(C(=O)O)cn2)nc2ccc(OC3CCCCC3)cc12 [Example 177, 1-(6-(cyclohexyloxy)-4-(ethyl(methyl)amino)quinazolin-2-yl)-1H-pyrazole-4-carboxylic acid]		56
5.7	CC(C)c1ccc2nc(-n3cc(C(=O)O)cn3)nc(N3CCOCC3)c2c1 [Example 184, 1-(4-(morpholino)-6-isopropylquinazolin-2-yl)-1H-pyrazole-4-carboxylic acid]		24
6.8	CC(C)c1ccc2nc(-n3cc(C(=O)O)cn3)nc(N3CCCC3)c2c1 [Example 187, 1-(6-isopropyl-4-(pyrrolidin-1-yl)quinazolin-2-yl)-1H-pyrazole-4-carboxylic acid]		28
6.0	CC(C)c1ccc2nc(-n3cc(C(=O)O)cn3)nc(NC3CC3)c2c1 [Example 188, 1-(4-(cyclopropylamino)-6-isopropylquinazolin-2-yl)-1H-pyrazole-4-carboxylic acid]		35
